Data as given in PubChem BioAssay (NCI).
“And” between values parts separate entries of the source, which are not always exact repeats. Equal values may be shown once.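 Interpolation was linear, between the two tested concentrations surrounding the appropriate level; five concentrations were tested over 48 hours in 96-well plates. GI50: concentration for 50% inhibition of growth. Definition used: TGI = concentration required for complete inhibition of growth.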

Key:
Assay in all cases: NCI tumour cell line growth inhibition, 48 h
UO-31 renal = tested on: UO-31 renal
MOLT-4 leukemia = tested on: MOLT-4 leukemia
SW-620 colon = tested on: SW-620 colon
LXFL 529 NSCLC = tested on: LXFL 529 NSCLC
RPMI-8226 leukemia = tested on: RPMI-8226 leukemia
K-562 leukemia = tested on: K-562 leukemia
SF-295 CNS = tested on: SF-295 CNS
SNB-78 CNS = tested on: SNB-78 CNS
NCI-H226 lung = tested on: NCI-H226 lung
NCI/ADR-RES ovarian = tested on: NCI/ADR-RES ovarian

Structure (SMILES)	TGI (UO-31 renal)	TGI (MOLT-4 leukemia) [µM]	TGI (SW-620 colon) [µM]	TGI (LXFL 529 NSCLC) [µM]	TGI (RPMI-8226 leukemia)	TGI (K-562 leukemia) [µM]	TGI (SF-295 CNS)	TGI (SNB-78 CNS) [µM]	TGI (NCI-H226 lung)	TGI (NCI/ADR-RES ovarian)	GI50 (UO-31 renal) [µM]	GI50 (MOLT-4 leukemia) [µM]	GI50 (SW-620 colon) [µM]	GI50 (NCI/ADR-RES ovarian) [µM]	GI50 (SF-295 CNS) [µM]	GI50 (NCI-H226 lung) [µM]	GI50 (RPMI-8226 leukemia) [µM]	GI50 (K-562 leukemia) [µM]
COC(=O)c1ccc(/C=C/S(=O)(=O)c2ccccc2)cc1	> 100 µM	> 100	> 100	> 100	> 100 µM	> 100	> 100 µM	> 100	> 100 µM									
CCN(CC)/[N+]([O-])=N/OCC(C)O (configuration not stated)	> 100 µM	> 100	> 100			> 100	> 100 µM	> 100	> 100 µM									
CNC(=S)N(C1CCCCC1)C1CCCCC1	> 100 µM	> 100	> 100		> 100 µM	> 100	> 100 µM		> 100 µM	> 100 µM								
CCCCCCC(O)C(O)CCC(O)C1CCC(CCCCC(O)CC2=CC(C)OC2=O)O1 (configuration not stated)	7.75 µM and 35.2 µM	43.9	> 100		30.6 µM	27.6	20.1 µM		34.7 µM	7.03 µM and 29.3 µM	16	13.4	36.5	11	0.0305	15.2		
CCC1(N)C(=O)OCc2c1cc1n(c2=O)Cc2cc3ccccc3nc2-1 (configuration not stated)	20.9 µM and 17.4 µM	> 41.7	> 100		81.5 µM and > 100 µM	> 100	50.2 µM and > 100 µM		34.3 µM and 97.1 µM	> 54.1 µM and 61.3 µM	4.43	1.83	12.9	7.18	3.45	2.71	3.66	5.36
CC(=O)Oc1cc(Cl)c(OC(C)=O)c2c(OC(C)=O)c(C)c(O[Si](C)(C)C(C)(C)C)cc12	26.3 µM	24.8	8.85		9.41 µM	18.2	23 µM	9.82										
Cc1ccc(-c2cc(=O)c3cc(C)c(C)c(C(=O)O)c3o2)cc1[N+](=O)[O-]	> 100 µM	> 100	> 100	> 100	> 100 µM	> 100	> 100 µM	> 100	> 100 µM									
CN1CCN(c2ccc(-c3cccc(CN4CCOCC4)c3)cc2NC(=O)c2c[nH]c(=O)cc2C(F)(F)F)CC1	> 100 µM	64	> 100		> 100 µM	51	> 100 µM		> 100 µM	> 100 µM	49	19	33.6	> 100	33.1	> 100	38.2	22.1
N#CC(C(=O)O)C(c1c(Cl)cccc1Cl)C(C#N)C(=O)O (configuration not stated)	> 100 µM	> 100	> 100		> 100 µM	> 100	> 100 µM		> 100 µM	> 100 µM								
C/C(=N\NS(=O)(=O)c1c(C)cc(C)cc1C)c1ccc[n+]([O-])n1	52.8 µM	37	22.3	23.4	31.4 µM	30.2	> 100 µM	68.3										
